Results taken from US4889857A, “Quinolonecarboxylic acid compounds and pharmaceutical use thereof” (Yoshitomi Pharmaceutical Industries, Ltd., priority 1987, dated 1989).

How the values were obtained:
[1] = tested on: S. pneumoniae Type III; assay: Protective effect against experimental infection in mice; assay type: in vivo; conditions: oral, 1 h after i.p. inoculation of 6.0 × 10^2 cells/mouse [12 LD50]; survival day 7; 95% confidence limit
Procedure: (§1) Experimental infection was caused by inoculating male mice intraperitoneally with each organism. Each of the test compounds was administered orally to the mice, one hour after the inoculation. The therapeutic effect of each compounds was judged by using a 50% effective dose (ED50) from the survival rate on day 7 after injection by the Probit method as described in Proc. Soc. Exp. Biol. Med., Vol. 57, p.261-264, 1944. The Minimum inhibitory concentrations (MIC) were also measured.
(§2) (The overnight cultures of test organisms with an asterisk (*) were
(§3) diluted with 50% mucin and 0.5 ml of each was injected intraperitoneally
(§4) into mice. A double asterisk (**) means a 95% confidence limit. MRSA mean
(§5) methycillinresistant Staphylococcus aureus.)

[2] = tested on: S. aureus 109(MRSA); assay: as above; assay type: in vivo; conditions: oral, 1 h after i.p. inoculation of 4.93 × 10^8 cells/mouse [5.7 LD50] with mucin; survival day 7; 95% confidence limit
Procedure: as §1, §2, §3, §4, §5

[3] = tested on: S. pyogenes C-203; assay: as above; assay type: in vivo; conditions: oral, 1 h after i.p. inoculation of 4.42 × 10^4 cells/mouse [680 LD50]; survival day 7; 95% confidence limit
Procedure: as §1, §2, §3, §4, §5

[4] = tested on: S. aureus Smith; assay: as above; assay type: in vivo; conditions: oral, 1 h after i.p. inoculation of 2.13 × 10^6 cells/mouse [792 LD50] with mucin; survival day 7; 95% confidence limit
Procedure: as §1, §2, §3, §4, §5

[5] = tested on: E. coli KC-14; assay: as above; assay type: in vivo; conditions: oral, 1 h after i.p. inoculation of 5.75 × 10^4 cells/mouse [488 LD50] with mucin; survival day 7; 95% confidence limit
Procedure: as §1, §2, §3, §4, §5

[6] = tested on: Shigella typhosa Boxhill-58; assay: Antibacterial activity in vitro (MIC); assay type: cell-based
Procedure: (§6) The antibacterial activities in vitro (minimum inhibitory concentration, MIC, μg/ml) of the test compounds were measured according to the standard method of the Japanese Chemotherapy Society (Chemotherapy, Vol. 23, p.1126, 1974).
(§7) (Inoculum size: 10^6 cells/ml, Organisms with asterisk (*) were
(§8) cultivated in a 10% horse bloodadded medium.)

[7] = tested on: Staphylococcus aureus 1840; assay: Antibacterial activity in vitro (MIC); assay type: cell-based
Procedure: as §6, §7, §8

[8] = tested on: Morganella morganii IFO 3168; assay: Antibacterial activity in vitro (MIC); assay type: cell-based; conditions: IFO3168
Procedure: as §6, §7, §8

[9] = tested on: Shigella sonnei EW-33; assay: Antibacterial activity in vitro (MIC); assay type: cell-based; conditions: EW33, inoculum 10^6 cells/ml
Procedure: as §6, §7, §8

[10] = tested on: Streptococcus viridans America; assay: Antibacterial activity in vitro (MIC); assay type: cell-based
Procedure: as §6, §7, §8

[11] = tested on: Staphylococcus epidermidis ATCC 12228; assay: Antibacterial activity in vitro (MIC); assay type: cell-based; conditions: ATCC12228
Procedure: as §6, §7, §8

[12] = tested on: Escherichia coli O-111; assay: Antibacterial activity in vitro (MIC); assay type: cell-based; conditions: O111, inoculum 10^6 cells/ml
Procedure: as §6, §7, §8

[13] = tested on: Xanthomonas maltophilia IFO 12690; assay: Antibacterial activity in vitro (MIC); assay type: cell-based; conditions: Stenotrophomonas maltophilia, IFO12690; inoculum 10^6 cells/ml
Procedure: as §6, §7, §8

[14] = tested on: Citrobacter freundii IFO 12681; assay: Antibacterial activity in vitro (MIC); assay type: cell-based; conditions: IFO12681, inoculum 10^6 cells/ml
Procedure: as §6, §7, §8

[15] = tested on: Pseudomonas putida IFO 12996; assay: Antibacterial activity in vitro (MIC); assay type: cell-based; conditions: IFO12996
Procedure: as §6, §7, §8

[16] = tested on: Staphylococcus aureus FDA 209P; assay: Antibacterial activity in vitro (MIC); assay type: cell-based; conditions: FDA209P
Procedure: as §6, §7, §8

[17] = tested on: Streptococcus lactis IFO 12546; assay: Antibacterial activity in vitro (MIC); assay type: cell-based; conditions: Lactococcus lactis, IFO12546
Procedure: as §6, §7, §8

[18] = tested on: Pseudomonas aeruginosa IFO 12582; assay: Antibacterial activity in vitro (MIC); assay type: cell-based; conditions: IFO12582
Procedure: as §6, §7, §8

[19] = tested on: Acinetobacter calcoaceticus ATCC 13006; assay: Antibacterial activity in vitro (MIC); assay type: cell-based; conditions: ATCC13006
Procedure: as §6, §7, §8

[20] = tested on: Proteus mirabilis IFO 3849; assay: Antibacterial activity in vitro (MIC); assay type: cell-based; conditions: IFO3849
Procedure: as §6, §7, §8

[21] = tested on: Escherichia coli NIHJ JC-2; assay: Antibacterial activity in vitro (MIC); assay type: cell-based; conditions: NIHJJC2
Procedure: as §6, §7, §8

[22] = tested on: Pediococcus damnosus IFO 3895; assay: Antibacterial activity in vitro (MIC); assay type: cell-based; conditions: IFO3895
Procedure: as §6, §7, §8

[23] = tested on: Streptococcus sp. IFO 3535; assay: Antibacterial activity in vitro (MIC); assay type: cell-based; conditions: IFO3535
Procedure: as §6, §7, §8

[24] = tested on: Shigella flexneri EW-10; assay: Antibacterial activity in vitro (MIC); assay type: cell-based; conditions: EW10, inoculum 10^6 cells/ml
Procedure: as §6, §7, §8

[25] = tested on: Proteus vulgaris IFO 3988; assay: Antibacterial activity in vitro (MIC); assay type: cell-based; conditions: IFO3988
Procedure: as §6, §7, §8

[26] = tested on: Escherichia coli T-7; assay: Antibacterial activity in vitro (MIC); assay type: cell-based; conditions: T7, inoculum 10^6 cells/ml
Procedure: as §6, §7, §8

[27] = tested on: Pseudomonas aeruginosa U-31; assay: Antibacterial activity in vitro (MIC); assay type: cell-based; conditions: U31
Procedure: as §6, §7, §8

[28] = tested on: Bacillus subtilis PCT 219; assay: Antibacterial activity in vitro (MIC); assay type: cell-based; conditions: PCT219
Procedure: as §6, §7, §8

[29] = tested on: Klebsiella pneumoniae DT; assay: Antibacterial activity in vitro (MIC); assay type: cell-based
Procedure: as §6, §7, §8

[30] = tested on: Corynebacterium diphtheriae Tronto; assay: Antibacterial activity in vitro (MIC); assay type: cell-based
Procedure: as §6, §7, §8

[31] = tested on: Serratia marcescens IFO 12648; assay: Antibacterial activity in vitro (MIC); assay type: cell-based; conditions: IFO12648
Procedure: as §6, §7, §8

[32] = tested on: S. aureus Smith; assay: MIC of the infecting organism (Experiment 2); assay type: cell-based; conditions: Staphylococcus aureus
Procedure: as §1

[33] = tested on: E. coli KC-14; assay: MIC of the infecting organism (Experiment 2); assay type: cell-based; conditions: Escherichia coli, KC14
Procedure: as §1

[34] = tested on: Staphylococcus aureus FDA 209P*; assay: Antibacterial activity in vitro (MIC), horse blood medium; assay type: cell-based; conditions: FDA209P
Procedure: as §6, §7, §8

O=C(O)c1cn(C2CC2)c2cc(N3CCNCC3)c(F)cc2c1=O [CPFX, 1-cyclopropyl-6-fluoro-1,4-dihydro-7-(1-piperazinyl)-4-oxoquinoline-3-carboxylic acid]
≤ 0.006 µg/mL: MIC [6] | MIC [9] | MIC [33]
0.011(0.008-0.015) mg/mouse: ED50 [5]
0.2 µg/mL: MIC [11] | MIC [16] | MIC [18] | MIC [27] | MIC [34]
0.1 µg/mL: MIC [15] | MIC [19] | MIC [20] | MIC [22] | MIC [30] | MIC [31] | MIC [32]
0.05 µg/mL: MIC [13] | MIC [25]
0.325(0.232-0.453) mg/mouse: ED50 [4]
> 2 mg/mouse: ED50 [1] | ED50 [3]
3.13 µg/mL: MIC [7] | MIC [10] | MIC [17] | MIC [23]
0.025 µg/mL: MIC [8] | MIC [21] | MIC [28] | MIC [29]
0.012 µg/mL: MIC [12] | MIC [14] | MIC [24] | MIC [26]
1.163(0.460-1.660) mg/mouse: ED50 [2]
